Results taken from patent US20200246298A1, “Composition for Preventing or Treating Asthma Comprising Fatty Acid as Active Ingredient” (Dongshin University Industry-Academy Cooperation, priority 2019, published 2020).

Experiments:
[1] = test system: WBC cells, eosinophils, neutrophils, lymphocytes and monocytes in BALF; assay: Blood cell analysis in BALF of mice with OVA-induced asthma; assay type: in vivo, BALB/c mice; settings: for proliferation of leukocytes, neutrophils, lymphocytes and monocytes in BALF and serum: summary statement, ovalbumin-induced asthma
Description: This experiment was performed in order to examine the anti-asthmatic effects of fatty acids after inducing asthma in experimental animals by ovalbumin (OVA). Experimental animals used in the experiment were chosen because of the accumulated abundant test data and their ease of analysis and evaluation of experimental results. BALB/c mice, which are specific pathogen […] (SPF) mice, were chosen based on the related literature. Experimental animals were provided in the minimum number so as to be able to analyze experimental results and were divided into a total of 9 groups according to the substance to be administered, and each group consisted of 8 animals. […] In test groups, the animals determined to be healthy during the acclimation period were ranked by measuring the weight, and were randomly grouped so that the average weight of each group was uniform. The animals were divided into a total of 9 groups: a control group; a control group with OVA-induced asthma; a positive control group; groups administered with each of 50 mg/kg, 125 mg/kg and 250 mg/kg of oleic acid; and groups administered with each of 5 mg/kg, 25 mg/kg and 50 mg/kg of palmitic acid. The animals were sensitized via intraperitoneal injection of OVA once a week for 2 weeks after the acclimation period. During 5 days of week 3, dexamethasone (DEX) and the test substances oleic acid and palmitic acid were orally administered in the morning and 5% OVA solution was inhaled in the afternoon. The test substance was orally administered in an amount of 28 μL per weight (g) of the experimental animal, and OVA for sensitization was administered in a constant amount regardless of the weight. After 5 days of administration, autopsy was performed the next day. Intraperitoneal administration: based on the related literature, 20 μg OVA+1 mg aluminum hydroxide+500 μL/head of normal saline were administered. For a total of 50 animals to be administered, 1000 μg OVA+50 mg aluminum hydroxide+25 mL of normal saline were prepared. The animals were sensitized by intraperitoneal injection once a week for 2 weeks, and injected with the test substance by a 1 mL syringe. Oral administration: the control group and the asthma-induced control group were administered with saline, and oleic acid and palmitic acid were used in dissolved in saline at various concentrations. Dexamethasone was dissolved in saline by stirring and prepared according to a final dose. All preparations were prepared on the day of administration. Inhalation: a solution containing 1 g OVA+20 mL normal saline (5% OVA solution) was prepared, stirred and administered. A forced inhalation was performed using a nebulizer (OMRON, NE-U17) for 5 days, and systemic exposure was performed using an inhalation exposure chamber. Collection of bronchoalveolar lavage fluid (BALF): the anesthetized animal tissue was opened with tweezers to secure the trachea, and then a surgical thread was placed underneath and loosely tied, and the trachea was slightly cut with scissors. Then, 0.2 mL of PBS was placed into a syringe with the needle removed, and the syringe was inserted into a sonde and then injected into the trachea. After injection, BALF was collected by injecting PBS again. 0.2 mL of BALF was collected three times in the same manner. The first BALF was placed in tube No. 1, the second and third BALFs were placed in tube No. 2. The blood cell analysis in BALF were performed (Lee et al., 2017; Bang et al., 2015). One day after the final treatment, the mice were anesthetized with intraperitoneal injections of 50 mg/kg Zoletin (Virbac, Fort Worth, Tex., USA), and their tracheas were cannulated with disposable animal feeding needles. Lavages were performed with three 0.4 ml aliquots of cold phosphate-buffered saline (PBS). The BALF samples were collected and immediately centrifuged at 3000 rpm for 5 minutes at 4° C. (Sorvall Legend Micro 17R, Thermo Fisher Scientific, Inc. Marietta, Ohio, USA). […]

IgE = assay: Analysis of IgE in BALF (Mouse IgE ELISA), OVA-induced asthma; assay type: in vivo, BALB/c mice; settings: 5 days, vs OVA-sensitized group
Description: In test groups, the animals determined to be healthy during the acclimation period were ranked by measuring the weight, and were randomly grouped so that the average weight of each group was uniform. The animals were divided into a total of 9 groups: a control group; a control group with OVA-induced asthma; a positive control group; groups administered with each of 50 mg/kg, 125 mg/kg and 250 mg/kg of oleic acid; and groups administered with each of 5 mg/kg, 25 mg/kg and 50 mg/kg of palmitic acid. The animals were sensitized via intraperitoneal injection of OVA once a week for 2 weeks after the acclimation period. During 5 days of week 3, dexamethasone (DEX) and the test substances oleic acid and palmitic acid were orally administered in the morning and 5% OVA solution was inhaled in the afternoon. The test substance was orally administered in an amount of 28 μL per weight (g) of the experimental animal, and OVA for sensitization was administered in a constant amount regardless of the weight. After 5 days of administration, autopsy was performed the next day. Immunoglobulin E (IgE) is a type of protein called antibody that plays an important role in allergic reactions. When IgE is exposed to a certain substance, the immune system begins to produce IgE in order to protect the body. […] 50 μL of a stop solution was added to each well, and the absorbance at 450 nm was measured.

| Structure (SMILES) | number of differential cells in BALF ([1]; oleic acid 50, 125, 250 mg/kg oral, 5 days, FIG. 1) | number of WBC cells ([1]; oleic acid 50, 125, 250 mg/kg oral, 5 days, vs OVA-sensitized group, FIG. 2) | number of eosinophils (EOs) ([1]; oleic acid 50, 125, 250 mg/kg oral, 5 days, vs OVA-sensitized group, FIG. 3) | number of neutrophils (NEs) ([1]; oleic acid 50, 125, 250 mg/kg oral, 5 days, vs OVA-sensitized group, FIG. 4) | number of lymphocytes (LYs) ([1]; oleic acid 50, 125, 250 mg/kg oral, 5 days, vs OVA-sensitized group, FIG. 5) | number of monocytes (MOs) ([1]; oleic acid 50, 125, 250 mg/kg oral, 5 days, vs OVA-sensitized group, FIG. 6) | proliferation of leukocytes, neutrophils, lymphocytes and monocytes in BALF and serum [1] | quantity of IgE (IgE; oleic acid 50, 125, 250 mg/kg oral, FIG. 13) | number of differential cells in BALF ([1]; palmitic acid 5, 25, 50 mg/kg oral, 5 days, FIG. 7) | number of WBC cells ([1]; palmitic acid 5, 25, 50 mg/kg oral, 5 days, vs OVA-sensitized group, FIG. 8) | number of neutrophils (NEs) ([1]; palmitic acid 5, 25, 50 mg/kg oral, 5 days, vs OVA-sensitized group, FIG. 10) | number of monocytes (MOs) ([1]; palmitic acid 5, 25, 50 mg/kg oral, 5 days, vs OVA-sensitized group, FIG. 12) | quantity of IgE (IgE; palmitic acid 5, 25, 50 mg/kg oral, FIG. 14) |
| --- | --- | --- | --- | --- | --- | --- | --- | --- | --- | --- | --- | --- | --- |
| CCCCCCCC/C=C\CCCCCCCC(=O)O [oleic acid] | dose-dependently decreased | dose-dependently decreased | dose-dependently decreased | dose-dependently decreased | dose-dependently decreased | dose-dependently decreased | inhibit | dose-dependently decreased |  |  |  |  |  |
| CCCCCCCCCCCCCCCC(=O)O [palmitic acid] |  |  |  |  |  |  | inhibit |  | dose-dependently decreased | dose-dependently decreased | dose-dependently decreased | dose-dependently decreased | dose-dependently decreased |
